Source: patent publication US20100029697A1, “SUBSTITUTED PYRIDO[3,2-E][1,2,4]TRIAZOLO[4,3-C]PYRIMIDINE DERIVATIVES AS CANNABINOID-1 RECEPTOR MODULATORS” (priority 2007, published 2010)

Key:
[1] = target: recombinant human CB1 receptor (Homo sapiens, UniProt P21554); experiment: Cannabinoid Receptor-1 (CB1) Binding Assay ([3H]CP-55940 displacement); details: recombinant human CB1 receptor in CHO cell membranes, 0.6 nM [3H]CP-55940
Method: Binding affinity determination is based on recombinant human CB1 receptor expressed in Chinese Hamster Ovary (CHO) cells (Felder et al, Mol. Pharmacol. 48: 443-450, 1995). Total assay volume is 250 μl (240 μl CB1 receptor membrane solution plus 5 μl test compound solution plus 5 μl [3H]CP-55940 solution). Final concentration of [3H]CP-55940 is 0.6 nM. Binding buffer contains 50 mM Tris-HCl, pH7.4, 2.5 mM EDTA, 5 mM MgCl2, 0.5 mg/mL fatty acid free bovine serum albumin and protease inhibitors (Cat#P8340, from Sigma). To initiate the binding reaction, 5 μl of radioligand solution is added, the mixture is incubated with gentle shaking on a shaker for 1.5 h at 30° C. The binding is terminated by using 96-well harvester and filtering through GF/C filter presoaked in 0.05% polyethylenimine. The bound radiolabel is quantitated using scintillation counter. Apparent binding affinities for various compounds are calculated from IC50 values (DeBlasi et al., Trends Pharmacol Sci 10: 227-229, 1989).

[2] = target: recombinant human CB1 receptor expressed in CHO cells (Homo sapiens, UniProt P21554); experiment: Cannabinoid Receptor-1 (CB1) Functional Activity Assay (intracellular cAMP, forskolin-stimulated CB1-CHO cells); format: cell-based; details: for EC50: cAMP level in CB1-CHO cells with forskolin; for functional mode at CB1 receptor in the CB1 functional activity assay: cAMP readout in CB1-CHO cells
recombinant human CB1 receptor expressed in CHO cells, sequence (P21554 whole entry): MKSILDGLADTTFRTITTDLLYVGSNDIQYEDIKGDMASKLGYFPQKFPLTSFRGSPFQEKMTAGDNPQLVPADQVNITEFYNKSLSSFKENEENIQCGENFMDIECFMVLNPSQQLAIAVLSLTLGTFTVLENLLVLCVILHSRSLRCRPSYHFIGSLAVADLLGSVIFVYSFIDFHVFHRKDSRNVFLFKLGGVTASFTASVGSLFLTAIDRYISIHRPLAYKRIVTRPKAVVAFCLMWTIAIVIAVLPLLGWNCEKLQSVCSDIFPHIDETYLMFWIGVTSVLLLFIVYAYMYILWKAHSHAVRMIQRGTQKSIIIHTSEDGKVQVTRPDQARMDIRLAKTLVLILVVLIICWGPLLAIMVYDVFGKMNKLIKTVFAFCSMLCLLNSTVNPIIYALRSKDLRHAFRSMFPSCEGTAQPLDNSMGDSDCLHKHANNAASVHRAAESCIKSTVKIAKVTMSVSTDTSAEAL
Method: The functional activation of CB1 receptor is based on recombinant human CB1 receptor expressed in CHO cells (Felder et al, Mol. Pharmacol. 48: 443-450, 1995). To determine the agonist activity or inverse agonist activity of any test compound, 50 ul of CB1-CHO cell suspension are mixed with test compound and 70 ul assay buffer containing 0.34 mM 3-isobutyl-1-methylxanthine and 5.1 uM of forskolin in 96-well plates. The assay buffer is comprised of Earle's Balanced Salt Solution supplemented with 5 mM MgCl2, 1 mM glutamine, 10 mM HEPES, and 1 mg/mL bovine serum albumin. The mixture is incubated at room temperature for 30 minutes, and terminated by adding 30 ul/well of 0.5M HCl. The total intracellular cAMP level is quantitated using the New England Nuclear Flashplate and cAMP radioimmunoassay kit.
To determine the antagonist activity of test compound, the reaction mixture also contains 0.5 nM of the agonist CP55940 (or 50 nM of methanandamide), and the reversal of the CP55940 (or methanandamide) effect is quantitated with increasing concentration of the test compound. Intracellular cAMP is determined as described above. An IC50 value for the test compound is calculated from the titration curve.

recombinant human CB1 receptor, sequence (P21554 whole entry): as above

Row | Compound | IC50 [1] [nM] | EC50 [2] [nM] | functional mode at CB1 receptor in the CB1 functional activity assay [2]
1 | CC(C)(C)c1nc2nc(-c3ccc(C#N)cc3C#N)c(-c3ccc(Cl)cc3)cc2c2n[nH]c(=O)n12 [Example 31, 4-[5-Tert-butyl-9-(4-chlorophenyl)-3-oxo-2,3-dihydropyrido[3,2-e][1,2,4]triazolo[4,3-c]pyrimidin-8-yl]isophthalonitrile] | 4 | < 100 | functional inverse agonists
2 | CC(C)(C)c1nc2nc(-c3ccc(C#N)cc3Cl)c(-c3ccc(Cl)cc3)cc2c2n[nH]c(=O)n12 [Example 28, 4-[5-Tert-butyl-9-(4-chlorophenyl)-3-oxo-2,3-dihydropyrido[3,2-e][1,2,4]triazolo[4,3-c]pyrimidin-8-yl]-3-chlorobenzonitrile] | 1 | < 100 | functional inverse agonists
3 | CC(C)(C)c1nc2nc(-c3ccccc3Cl)c(-c3ccc(-c4ncon4)cc3)cc2c2n[nH]c(=O)n12 [Example 32, 5-Tert-butyl-8-(2-chlorophenyl)-9-[4-(1,2,4-oxadiazol-3-yl)phenyl]pyrido[3,2-e][1,2,4]-triazolo[4,3-c]pyrimidin-3(2H)-one] | 11 | < 100 | functional inverse agonists
4 | CC(C)(C)c1nc2nc(-c3ccccc3-c3ccc(F)cc3)c(-c3ccc(F)cc3)cc2c2n[nH]c(=O)n12 [Example 27, 5-Tert-butyl-8-(4′-fluorobiphenyl-2-yl)-9-(4-fluorophenyl)pyrido[3,2-e][1,2,4]triazolo[4,3-c]pyrimidin-3(2H)-one] | 6 | < 100 | functional inverse agonists

Further lines, results first:

Row | IC50 [1] [nM] | EC50 [2] [nM] | functional mode at CB1 receptor in the CB1 functional activity assay [2] | Compound
5 | 10 | < 100 | functional inverse agonists | CC(=O)c1ccc(-c2cc3c(nc2-c2ccccc2Cl)nc(C(C)(C)C)n2c(=O)[nH]nc32)cc1 [Example 9, 9-(4-Acetylphenyl)-5-tert-butyl-8-(2-chlorophenyl)pyrido[3,2-e][1,2,4]triazolo[4,3-c]pyrimidin-3(2H)-one]
6 | 6 | < 100 | functional inverse agonists | CC(C)(C)c1nc2nc(-c3ccccc3Cl)c(-c3ccc(C#N)cc3)cc2c2n[nH]c(=O)n12 [Example 16, 4-[5-Tert-butyl-8-(2-chlorophenyl)-3-oxo-2,3-dihydropyrido[3,2-e][1,2,4]triazolo[4,3-c]pyrimidin-9-yl]benzonitrile]
7 | 2 | < 100 | functional inverse agonists | CC(C)(C)c1nc2nc(-c3ccccc3Cl)c(-c3ccc(Cl)cc3)cc2c2n[nH]c(=O)n12 [Example 1, 5-Tert-butyl-8-(2-chlorophenyl)-9-(4-chlorophenyl)pyrido[3,2-e][1,2,4]triazolo[4,3-c]pyrimidin-3(2H)-one]
